According to patent publication US11987807B2, “Isolated human lung progenitor cells and uses thereof” (THE GENERAL HOSPITAL CORPORATION, priority 2012, dated 2024):
Like-named read-outs stand apart in the source and are kept apart here.

Legend:
[1] = test system: mouse ES cell-derived definitive endoderm; assay: Anteriorization of mouse ESC-derived definitive endoderm to FoxA2+Sox2+ anterior foregut endoderm; type: cell-based; settings: for effect on FoxA2+Sox2+ cells: treatment of definitive endoderm at the anteriorization step
Protocol: This technology was adapted herein to generate definitive endoderm (DE) from mouse ES cells. […] Next, it was asked if the newly generated DE cells have the competence to generate Nkx2.1+ cells. […] Since the inventors had already incorporated BMP inhibition during DE generation (FIG. 7), the question whether continuous BMP inhibition is necessary for anteriorization or if TGFβ inhibition alone was sufficient for anterior patterning was explored. Endoderm was treated with combinations of Activin (a TGFβ agonist), A-83-01 (a TGFβ antagonist), BMP4, and Dorsomorphin (a BMP4 antagonist) for 2 days (FIG. 2B). The number of FoxA2+Sox2+ anterior endoderm cells was compared to the total number of FoxA2+ endoderm cells (FIG. 2B). The treated cells were further exposed to the BMP4/FGF2/WNT agonist cocktail for another 2 days to examine their competence to generate Nkx2.1+ cells (FIG. 2B). […] It was tested if their inhibition would enhance anteriorization together with a TGFβ inhibitor.
Mouse Endoderm Anteriorization and Nkx2.1 Cell Differentiation: Mouse definitive endoderm was generated as described herein. To anteriorize endoderm, on and after day 5, the cells were split and re-seeded on to the plates pre-coated with 804G-conditioned medium and fed with DO medium+0.5-1 μM A8301 (CalBiochem, 616454) for 2 days. Then the media was rinsed with DO medium 2 times and switched to DO medium supplemented with 50 ng/ml BMP4, 100 ng/ml FGF2 (GIBCO, PHG0026), and 5-10 nM GSK3iXV for another 2-3 days. To generate Nkx2.1+Sox2+ proximal progenitor cells, the cells were rinsed with DO medium 2 times and switched to DO medium containing RA-supplemented B27, 50 ng/ml BMP7, 50 ng/ml FGF7, 100 nM IWR-1, and 1-2 μM PD98059 for 2 days or longer times.
Immunofluorescence: At each differentiation step, the cells were fixed with fresh paraformaldehyde (4%) for 15 min at room temperature, rinsed in PBS, washed with PBS+0.2% Triton X-100 and incubated with the primary antibodies at 4° C. overnight (>16 hrs) diluted in PBS+1% BSA. Following incubation, the cells were rinsed 4 times PBS+0.2% Triton X-100, and incubated with secondary antibodies at room temperature for 2 hours. The images were visualized using an Olympus IX71 inverted fluorescence microscope or a Nikon A1 Confocal Laser microscope.
The secondary antibodies were purchased from Invitrogen (AlexaFluor-549 and AlexaFluor-488). The quantification was performed by counting at least 5 random fields at 20× magnification and calculating the average and standard deviation.

[2] = test system: mouse ESC-derived endoderm / anterior foregut endoderm cells; settings: for NKX2.1 induction: anteriorized endoderm, BMP4 alone, or FGF2 or/and GSK3i without BMP4
Description: Dorsomorphin inhibits BMP signaling through the SMAD pathway while PD98059 inhibits MAPK signaling.
A recent report described a monolayer-based strategy using synergistic activation of Nodal and Wnt-β-catenin signaling as well as staged BMP4 inhibition to direct mouse ES cells towards an endoderm fate with high efficiency (Sherwood et al., 2011). This technology was adapted herein to generate definitive endoderm (DE) from mouse ES cells. […] Snoeck and colleagues reported that Noggin (a BMP inhibitor) synergized with SB431542 (a TGFβ inhibitor) to suppress a posterior endoderm fate (Cdx2+) in favor of an anterior endoderm fate (Sox2+) (Green et al., 2011). […] Endoderm was treated with combinations of Activin (a TGFβ agonist), A-83-01 (a TGFβ antagonist), BMP4, and Dorsomorphin (a BMP4 antagonist) for 2 days (FIG. 2B). The number of FoxA2+Sox2+ anterior endoderm cells was compared to the total number of FoxA2+ endoderm cells (FIG. 2B). The treated cells were further exposed to the BMP4/FGF2/WNT agonist cocktail for another 2 days to examine their competence to generate Nkx2.1+ cells (FIG. 2B). […] It was tested if their inhibition would enhance anteriorization together with a TGFβ inhibitor.
The expression of lung and other anterior cell fate lineage genes including FoxN1 (thymus), Pax8 (thyroid), and Pax9 and Tbx1 (pharyngeal pouch endoderm) was analyzed by real-time qPCR (Figure S4A).
It was tested if BMP4, FGF2, and WNT signaling are each required to specify lung endoderm from the anterior foregut in an in vitro mouse ESC differentiation system. To do this, anteriorized endoderm cells were exposed to combinations of BMP4, FGF2 and WNT agonists and antagonists (FIGS. 3A and B).
These complexes translocate to the nucleus and activate expression of target genes (von Bubnoff and Cho, 2001; Chen et al., 2004; Sieber et al., 2009; Miyazono et al., 2010). Besides Smad1/5/8-mediated transcription, BMP-induced receptor complexes can activate the mitogen-activated protein kinase (MAPK) pathway via ERK, […] or p38 (Kozawa et al., 2002).
(§1) Mouse Endoderm Anteriorization and Nkx2.1 Cell Differentiation: Mouse definitive endoderm was generated as described herein. To anteriorize endoderm, on and after day 5, the cells were split and re-seeded on to the plates pre-coated with 804G-conditioned medium and fed with DO medium+0.5-1 μM A8301 (CalBiochem, 616454) for 2 days.

[3] = test system: human Cystic Fibrosis iPSC-derived definitive endoderm cells; assay: Anteriorization of human Cystic Fibrosis iPSC-derived definitive endoderm (SOX2 induction); type: cell-based
Protocol: FIG. 6 is a schematic depicting an exemplary strategy and time line to generate Nkx2.1+ lung multipotent progenitors from human iPSCs. Data from the experiment indicate a step-wise differentiation of Nkx2.1+ lung progenitors from human iPSCs. A high yield of definitive endoderm from CF1 RiPS cells was obtained after treatment for 4 days in RPMI-1640 media in the presence of 2% B27 supplement, Activin A (100 ng/ml) and 5 μM PI3 Kinase inhibitor LY294002 with more than 90% of cells co-expressing transcription factors SOX17 and FOXA2 (data not shown). Anteriorization of endoderm into foregut endoderm cells was observed by detecting SOX2 expression in Foxa2+ cells derived from CF1 RiPS cells after 4 days of treatment with 500 nM A-83-01 (TGFβ antagonist) and 100 ng/ml Noggin (BMP4 antagonist) (data not shown). NKX2.1 staining was performed after anteriorization to foregut cells at D8 with serum-free medium containing 20 ng/ml BMP4, 20 ng/ml FGF2 and 5 nM GSK3iXV for 4 days (data not shown). […] In addition, confocal images following immunofluorescence staining indicates some Nkx2.1+ sphere contain basal cells positive for p63 (data not shown).
By using anteriorization conditions similar to Green et al., the induction of SOX2 expression in DE cells was obtained with efficiencies of up to 50%-60% after 4 days of treatment with A-83-01 (a TGFβ antagonist; data not shown). […]

[4] = test system: human iPSC-derived Foxa2+Sox2+ anterior endoderm; assay: Chemical screening and differentiation of Nkx2.1+ lung progenitors from human iPSC-derived Foxa2+Sox2+ anterior endoderm; type: cell-based
Protocol: In order to increase the efficiency of Nkx2.1+ lung progenitor production, the inventors performed an unbiased high throughput chemical screening on a kinase pathway inhibitor library and an NIH clinical drug library to identify small molecule compounds and FDA-approved clinical drugs that can facilitate NKX2.1-positive lung progenitor differentiation. The platform for chemical screening is illustrated in FIG. 14A. The screening was performed at the step of conversion of Foxa2+Sox2+ anterior endoderm to Nkx2.1+ lung endoderm.
At least five molecules were identified from the Kinase Compound Set (240 compounds) and at least 6 drugs were identified from the NIH Clinical Collection (400 compounds) that produced statistically significant (more than 3 fold) increases in the percentage of Nkx2.1+ cells (FIG. 14B). These Nkx2.1+ cells have been further stained in separate experiments to exclude the expression of neuronal lineage marker Tuj1 and thyroid lineage marker Pax8. In addition, all positive candidates identified in the primary screen have been assessed for drug duration and dose effects to increase the formation of lung progenitors, and they have been evaluated for other effects including inducing cytotoxicity, and cellular proliferation by Ki67 staining. […] It was also determined that BMP4 is dispensable for human lung progenitor differentiation from iPSCs, indicating a species difference in lung development in human and mouse.
Several of these negative compounds are MEK1/2 antagonists. […] For example, endoderm-specific deletion of MEK1/2 results in lung agenesis in mice (unpublished data).
After studying the additive and synergistic effects of the positive hits, a robust and economically efficient new protocol was devised for the generation of a highly enriched population of Nkx2.1+ lung progenitors (up to 85%-90%) from multiple iPS cell lines in xeno-free conditions in order to keep the cells suitable for future clinical applications. This exemplary differentiation medium contains one Wnt agonist (e.g., 0.5 uM CHIR9902), one PI3 kinase inhibitor (e.g., 0.02-0.05 uM PIK-75), one clinically used drug (e.g., 0.02-0.05 uM methotrexate), one BMP antagonist (e.g., 2-4 uM Dorsomorphin) and a single growth factor (e.g., 10-50 ng/ml FGF2). FIG. 12 is the summary of the newly developed step-wise airway progenitor differentiation protocol from iPSC to airway progenitors. Many other protocols can be generated by one of skill in the art from this basic protocol (RPMI+2% B27+10-50 ng/ml FGF2+0.5 uM CHIR9902+2-4 uM Dorsomorphin) together with the compounds listed in FIG. 14.

[5] = test system: mouse ESC-derived Nkx2.1+ cells; assay: Generation of proximal airway progenitors from mouse ESC-derived Nkx2.1+ lung endoderm cells; type: cell-based
Protocol: as §1

**Q.** What does the source list for `Cc1cccc(-c2nn(C(=S)Nc3ccccc3)cc2-c2ccnc3ccccc23)n1` [A-83-01]?
**A.** FoxA2+Sox2+ anterior endoderm (of total FoxA2+ cells) ([1]; TGFβ inhibition, 2 days): 40%-55; Nkx2.1+ cells (of total cells) ([2]; after 2 days TGFβ inhibition, then BMP4/FGF2/WNT agonist cocktail 2 days): 7%-13; induction of SOX2 expression in DE cells, efficiency ([3]; 4 days of treatment): 50%-60

**Q.** How did the “NKX2.1+ cell production” value ([4]; in vitro differentiation systems) turn out when `CCCCCCCCCCCCCC(=O)O[C@@H]1[C@@H](C)[C@@]2(O)[C@@H](C=C(CO)C[C@]3(O)C(=O)C(C)=C[C@@H]23)[C@@H]2C(C)(C)[C@]12OC(C)=O` [phorbol 12-myristate 13-acetate] was run?
**A.** stimulates NKX2.1+ cell production

**Q.** Which results are given for “BMP4: bone morphogenic protein 4, growth factor”?
**A.** requirement for human lung progenitor differentiation from iPSCs [4]: dispensable; NKX2.1 expression level ([4]; addition of BMP4): decreases NKX2.1 expression; total NKX2.1+ lung progenitor cell number ([4]; addition of BMP4): without affecting the total NKX2.1+ lung progenitor cell number; neuroectodermal marker Tuj1 ([1]; BMP4 present between days 5-7): less neuroectodermal marker Tuj1 was present; NKX2.1 induction [2]: could induce NKX2.1 expression

**Q.** `COc1cccc(-c2cc(=O)c3ccccc3o2)c1N` [PD98059] was tested. Which cell death [2] did it give?
**A.** Significant cell death

**Q.** What about the “effect on generation of Nkx2.1+ cells” value ([2]; added to BMP4 induction (pSmad1/5/8 or MAPKK/ERK inhibition)) of the same molecule?
**A.** only partially decreased the Nkx2.1+ cell proportion

**Q.** What about the “Nkx2.1+Sox2+ airway progenitor cells (of total number of Nkx2.1+ cells)” value ([5]; from day 9, 2-3 days, 1%-2% before treatment) of the same molecule?
**A.** up to 18%

**Q.** With `COC(=O)c1ccc[cH-]1.O=C1NC(=O)c2c1c1cccnc1c1[n-]c3c(Br)cc(O)cc3c21.[CH+]=O.[Ru]` [GSK3i] as the molecule, how does the NKX2.1 induction [2] read?
**A.** not sufficient for NKX2.1 induction

**Q.** How did the cell death ([1]; together with a TGFβ inhibitor at anteriorization) turn out when `CCN(CC)CCCCNc1ncc2cc(-c3cc(OC)cc(OC)c3)c(NC(=O)NC(C)(C)C)nc2n1` [PD173074] was run?
**A.** induced cell death

**Q.** With FGF2: fibroblast growth factor as the molecule, how does the “effect on Nkx2.1+ cells” value ([2]; added dose of FGF2 despite presumptive endogenous FGF signaling) read?
**A.** upregulated Nkx2.1+ cells

**Q.** And the NKX2.1 induction [2]?
**A.** not sufficient for NKX2.1 induction

**Q.** Which results are given for `O=C(Nc1cccc2cccnc12)c1ccc(N2C(=O)[C@@H]3[C@H](C2=O)[C@@H]2C=C[C@H]3C2)cc1` [IWR-1]?
**A.** effect on FoxA2+Sox2+ cells [1]: did not increase the FoxA2+Sox2+ population; effect on Nkx2.1+Sox2+ cell production ([5]; individual factors removed or replaced in proximal induction medium): most pronounced effect

B1: Activin: a TGFβ agonist (protein, UniProt P08476 311-426, looked up)
Inhibin beta A chain: GLECDGKVNICCKKQFFVSFKDIGWNDWIIAPSGYHANYCEGECPSHIAGTSGSSLSFHSTVINHYRMRGHSPFANLKSCCVPTKLRPMSMLYYDDGQNIIKKDIQNMIVEECGCS
modifications: Inhibin beta A chain
notes: a TGFβ agonist
**Q.** B1 was tested. Which “effect on FoxA2+Sox2+ cells” value [1] did it give?
**A.** rare FoxA2+Sox2+ cells

**Q.** What about the “effect on Nkx2.1+ cells” value ([2]; treatment at the anteriorization step, then BMP4/FGF2/WNT agonist cocktail 2 days) of the same molecule?
**A.** few Nkx2.1+ cells

B2: Noggin: a BMP4 antagonist (protein, UniProt Q13253 28-232, looked up)
Noggin: QHYLHIRPAPSDNLPLVDLIEHPDPIFDPKEKDLNETLLRSLLGGHYDPGFMATSPPEDRPGGGGGAAGGAEDLAELDQLLRQRPSGAMPSEIKGLEFSEGLAQGKKQRLSKKLRRKLQMWLWSQTFCPVLYAWNDLGSRFWPRYVKVGSCFSKRSCSVPEGMVCKPSKSVHLTVLRWRCQRRGGQRCGWIPIQYPIISECKCSC
**Q.** For B2, which requirement for anteriorization [3] is on record?
**A.** not necessary

B3: BMP7: BMP family member binding type I receptor ALK2 (protein, UniProt P18075 293-431, looked up)
Bone morphogenetic protein 7: STGSKQRSQNRSKTPKNQEALRMANVAENSSSDQRQACKKHELYVSFRDLGWQDWIIAPEGYAAYYCEGECAFPLNSYMNATNHAIVQTLVHFINPETVPKPCCAPTQLNAISVLYFDDSSNVILKKYRNMVVRACGCH
**Q.** Which results are given for B3?
**A.** induction of Nkx2.1+ cells from the anterior endoderm compared to BMP4 ([2]; BMP7 10 ng/ml): had no effect; induction of Nkx2.1+ cells from the anterior endoderm ([2]; increased concentration (>100 ng/ml)): still failed to generate Nkx2.1+ cells
